Assay results as given in patent US10806121B2, “Animal litter containing a pheromone composition” (Sergeant's Pet Care Products, LLC, priority 2014, dated 2020).

Tested on: cats
Test: Study 1: cat litter preference, pheromone-treated litter versus control litter
Assay type: in vivo
Conditions: for percentage preference (% of the cats using the treated litter): litter treated at 10 μg/3-lb (7.3 μg/kg), choice against control litter over 48 hours, 50% = no effect; for Litter Type Use, g, TRT (weights of litter after 2 days): treated litter box, 10 μg/3-lb, SE = 0.023; for Relative Difference, % / Significantly Different: treated versus control litter weight after 2 days; for effect on cats' litter preference: treated versus control litter, 48 hours
Protocol: In Study 1, four different treatments were tested: Androstenone (ANDRO); cat urinary pheromone, 3-mercapto-3-methyl-1-butanol (CAT); rabbit pheromone, 2-methylbut-2-enal (RP); and both the cat urinary pheromone and the rabbit pheromone (CAT+RP). 40 individual cats were used in this study to assess their preference to or aversion from a control litter versus a litter under one of the four treatments. Each treatment was tested with 10 cats. Litter was divided into 3 lb aliquots, and each aliquot was either used as a control or was mixed with a pheromone (or a pheromone combination) to be tested at a level of 10 μg/3-lb (or 7.3 μg/kg).
On Day 0, each cat was placed into an assigned chamber randomly placed with two litter boxes, one control and one treated. Each of the two litter boxes was weighed and the weight was recorded. The camera in the chamber was properly aligned to give a full view of the chamber and started taping on Day 0. On Day 1, 24 hours after the start of taping on Day 0, each of the two litter boxes in the chamber was weighed and the weight was recorded. On Day 2, 48 hours after the start of taping on Day 0, each of the two litter boxes in the chamber was again weighed. Litter can be disposed of after weighing on Day 2, and the camera was then turned off. The weights of the litter boxes over the 48 hours were used to determine whether the litter was used or not, and at which preference level.
The data were expressed as both a percentage preference (% of the cats using the treated litter in each treatment group) and by the weight of the litter (the litter gets heavier as it is soiled). It was expected that if the added pheromone had no effect on litter preference, 50% of the cats would use the treated litter and 50% would use the control litter. […] Further, the weight difference between a control litter or litter under treatment was used to show the relative strength of the effect of a particular treatment on cat's litter use behavior. During the study, some cats (N=3; 2 in CAT+RP and 1 in RP) spilled their litter and their data were unreliable and were not included.

SMILES | percentage preference (% of the cats using the treated litter) [%] | Litter Type Use, g, TRT (weights of litter after 2 days) [g] | Relative Difference, % [%] | Significantly Different | effect on cats' litter preference
C[C@]12CCC(=O)C[C@@H]1CC[C@@H]1[C@@H]2CC[C@]2(C)C=CC[C@@H]12 [ANDRO, Androstenone] | 50 | 0.571 | −11 | No | did not provide any attraction
CC(C)(S)CCO [CAT, 3-mercapto-3-methyl-1-butanol] | 40 | 0.562 | −43 | Yes | slight aversion
